Experimental data as given in patent US12338204B2, “Substituted bisphenylalkylurea compounds and methods of treating breast cancer” (Texas Tech University System, priority 2018, dated 2025).

Legend:
[1] = Ability to cross the blood-brain-barrier; details: statement in words, no data shown
[2] = tested on: TNBCs and their metastases; test: Stopping the growth of TNBCs and their metastases; details: statement in words, no data shown

Q: Which “ability to cross the blood-brain-barrier (BBB)” value [1] does the source give for COc1ccc(C(CCCCNC(=O)Nc2ccc(Cl)c([N+](=O)[O-])c2)c2ccc(OC)cc2)cc1 [1-(5,5-bis(4-methoxyphenyl)pentyl)-3-(4-chloro-3-nitrophenyl)urea] here?
A: shows the ability to cross the blood-brain-barrier

Q: And the “stopping the growth of TNBCs and their metastases” value [2]?
A: effective in stopping the growth of TNBCs and their metastases
